Assay results published in ChEMBL document CHEMBL3745652, “Synthesis and evaluation of pretomanid (PA-824) oxazolidinone hybrids” (Bioorg Med Chem Lett, 2016).
In brackets after ≈: the same amount, converted by molar mass. Activity calls are given as the source filed them. No cut-off for these calls is given here.

How the values were obtained:
[1] = tested on: Vero; test: Cytotoxicity against African green monkey Vero cells by cell titer glo assay; format: cell-based; details: Chlorocebus sabaeus
[2] = Half life in mouse liver microsomes; format: ADME; details: microsomes
[3] = Apparent permeability from apical to basolateral side in human Caco2 cells; format: ADME, cell-based; details: caco-2
[4] = Apparent permeability from basolateral to apical side in human Caco2 cells; format: ADME, cell-based; details: caco-2
[5] = Plasma protein binding in human; format: ADME, cell-free
[6] = tested on: Mus musculus; test: Toxicity in C57BL/6 mouse at 300 mg/kg, po after 3 days; format: organism-based; details: in vivo, 72 h
[7] = tested on: Mycobacterium tuberculosis; test: Antimicrobial activity against Mycobacterium tuberculosis H37Rv infected in C57BL/6 mouse assessed as reduction in bacterial load at 100 mg/kg, po after 28 days; format: functional, organism-based
[8] = AUC(infinity) in C57BL/6 mouse at 10 mg/kg, iv; format: ADME, organism-based; set-up: dose 10 mg/kg, time infinity, route intravenous; details: in vivo
[9] = Half life in C57BL/6 mouse at 10 mg/kg, iv; format: ADME, organism-based; details: in vivo
[10] = Clearance in C57BL/6 mouse at 10 mg/kg, iv; format: ADME, organism-based; details: in vivo
[11] = Volume of distribution at steady state in C57BL/6 mouse at 10 mg/kg, iv; format: ADME, organism-based; details: in vivo, read-out: Vdss
[12] = tested on: Bacillus anthracis; test: Antimicrobial activity against Bacillus anthracis; format: functional, organism-based
[13] = tested on: Bacillus subtilis; test: Antimicrobial activity against Bacillus subtilis; format: functional, organism-based
[14] = tested on: Enterococcus faecalis; test: Antimicrobial activity against Enterococcus faecalis; format: functional, organism-based
[15] = tested on: Staphylococcus aureus; test: Antimicrobial activity against Staphylococcus aureus; format: functional, organism-based
[16] = tested on: Streptococcus pyogenes; test: Antimicrobial activity against Streptococcus pyogenes; format: functional, organism-based
[17] = tested on: Streptococcus pneumoniae; test: Antimicrobial activity against Streptococcus pneumoniae; format: functional, organism-based
[18] = tested on: Acinetobacter baumannii; test: Antimicrobial activity against Acinetobacter baumannii; format: functional, organism-based
[19] = tested on: Escherichia coli; test: Antimicrobial activity against Escherichia coli; format: functional, organism-based
[20] = tested on: Klebsiella pneumoniae; test: Antimicrobial activity against Klebsiella pneumoniae; format: functional, organism-based
[21] = tested on: Mycobacterium tuberculosis; test: Antimicrobial activity against Mycobacterium tuberculosis H37Rv assessed as growth inhibition after 7 days by microbroth dilution method; format: functional; details: 168 h

Which results are given for `O=C1COCCN1c1ccc(CO[C@@H]2COc3nc([N+](=O)[O-])cn3C2)cc1`?
IC50 [1]: > 100 µg/mL; t1/2 [2]: 1100 min; Papp [3]: 40.08 ×10⁻⁶ cm/s; Papp [4]: 30.56 ×10⁻⁶ cm/s; PPB [5]: 50.4%; Activity [6]: Non-toxic; Activity [7]: inactive; AUC(0-inf) [8]: 7410 ng·h/mL; half-life [9]: 28.8 min; clearance [10]: 22.5 mL/min/kg; Vd [11]: 0.79 L/kg; Activity [12]: inactive; Activity [13]: inactive; Activity [14]: inactive; Activity [15]: inactive; Activity [16]: inactive; Activity [17]: inactive; Activity [18]: inactive; Activity [19]: inactive; Activity [20]: inactive; MIC [21]: 0.78 µg/mL (≈ 2.08 µM)

For `O=C1COCCN1c1ccc(CO[C@@H]2COc3nc([N+](=O)[O-])cn3C2)cc1F`, which IC50 [1] is on record?
The IC50 was greater than 100 µg/mL.

What about the t1/2 [2] of the same compound?
The t1/2 was 792 min.

What about the Papp [3] of the same compound?
The Papp was 50.57 ×10⁻⁶ cm/s.

And the Papp [4]?
The Papp was 31.67 ×10⁻⁶ cm/s.

And the PPB [5]?
The PPB was 67.8%.

What about the Activity [6] of the same compound?
Its Activity is “Non-toxic”.

What about the Activity [7] of the same compound?
Its Activity is “inactive”.

What about the AUC(0-inf) [8] of the same compound?
The AUC(0-inf) was 5180 ng·h/mL.

What about the half-life [9] of the same compound?
Its half-life is 16.8 min.

And the clearance [10]?
The clearance was 32.3 mL/min/kg.

And the Vd [11]?
Its Vd is 0.63 L/kg.

What about the Activity [12] of the same compound?
The Activity was “inactive”.

What about the Activity [13] of the same compound?
Its Activity is “inactive”.

And the Activity [14]?
Its Activity is “inactive”.

What about the Activity [15] of the same compound?
Its Activity is “inactive”.

And the Activity [16]?
Its Activity is “inactive”.

And the Activity [17]?
The Activity was “inactive”.

What about the Activity [18] of the same compound?
The Activity was “inactive”.

And the Activity [19]?
Its Activity is “inactive”.

What about the Activity [20] of the same compound?
The Activity was “inactive”.

What about the MIC [21] of the same compound?
Its MIC is 0.78 µg/mL (≈ 1.99 µM).
